Results published in patent US20160264558A1, “FLUOROGENIC PROTECTING GROUP” (ISIS INNOVATION LIMITED, priority 2013, published 2016).

Experiments:
[1] = biological target: T1, purified human cytochrome p450 reductase (Homo sapiens, UniProt P16435); assay: Purified reductase assay (hypoxic/normoxic incubation, HPLC); format: in vitro ADME; details: 250 nM
T1 construct: purchased Cypex
T1 sequence (P16435 1-677): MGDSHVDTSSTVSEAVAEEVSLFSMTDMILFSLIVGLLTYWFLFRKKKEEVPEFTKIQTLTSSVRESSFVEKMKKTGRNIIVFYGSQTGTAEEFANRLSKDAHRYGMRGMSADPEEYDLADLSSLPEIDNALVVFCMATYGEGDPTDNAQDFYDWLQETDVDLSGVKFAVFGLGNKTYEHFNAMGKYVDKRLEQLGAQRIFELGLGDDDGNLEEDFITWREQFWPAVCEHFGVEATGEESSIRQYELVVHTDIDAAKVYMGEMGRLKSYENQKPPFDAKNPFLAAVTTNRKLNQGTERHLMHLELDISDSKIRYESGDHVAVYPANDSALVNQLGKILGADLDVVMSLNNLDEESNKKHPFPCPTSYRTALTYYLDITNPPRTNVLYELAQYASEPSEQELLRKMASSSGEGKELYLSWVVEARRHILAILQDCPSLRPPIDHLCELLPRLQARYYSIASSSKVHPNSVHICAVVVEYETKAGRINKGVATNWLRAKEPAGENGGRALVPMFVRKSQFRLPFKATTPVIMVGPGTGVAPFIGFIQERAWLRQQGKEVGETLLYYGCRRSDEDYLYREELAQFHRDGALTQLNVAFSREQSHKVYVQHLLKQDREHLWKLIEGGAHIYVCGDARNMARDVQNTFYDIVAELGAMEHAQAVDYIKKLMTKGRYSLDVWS
Protocol: The bioreductive compound 18 (Example 1) was incubated with purified human cytochrome p450 reductase in hypoxic and normoxic conditions.
Bactosomal human NADPH-CYP reductase (Cypex, 12.7 mg/mL, 13900 nmol/min/mL) was used in combination with an NADPH-regenerating system (BD Biosciences), and the assay was carried out according to the manufacturer's protocol (BD Biosciences application note 467) at a compound 18 concentration of 250 nM. For hypoxic conditions, vials were deoxygenated by bubbling nitrogen prior to P450 addition and then transferred into a Bactron II (Shell laboratories). Samples were taken at different time points and analyzed by HPLC.

[2] = biological target: BRD4 (Homo sapiens, UniProt O60885); assay: AlphaScreen assay against BRD4; format: binding
[3] = Fluorimetry of compound A and its reduced counterpart B; format: physicochemical; details: 50 μM in iPrOH, excitation wavelength 515 nm, (FIG. 6)
Protocol: Compound A (Example 7) was synthesised in accordance with Sun et at (Chem. Commun., 2013, 49, 3890-3892). Fluorescence spectra of the compound, as well as its reduced counterpart compound B, was confirmed by fluorimetry.
50 μM solutions of A and B were prepared in iPrOH and fluorimetry carried out using a Perkin Elmer Luminescence Spectrometer LS 50 B with an excitation wavelength of 515 nm. Results are depicted in FIG. 6.

[4] = biological target: T2, Cytochrome P450 reductase (Homo sapiens, UniProt P16435); assay: Cytochrome P450 reductase assay of compound A; format: in vitro ADME; details: anaerobic conditions, over 8 h (FIG. 8)
T2 sequence (P16435 1-677): T1 sequence (P16435 1-677)
Protocol: Compound A was subject to a Cytochrome P450 reductase assay in accordance with the procedure of Cazares-Korner (CH-01 is a hypoxia-activated prodrug that sensitizes cells to hypoxia/reoxygenation through inhibition of Chk1 and Aurora A., ACS Chem. Biol. 2013 DOI:10.1021/cb4001537).
FIG. 8 records absorbance at 0, 2, 4 and 8 hours under hypoxic (FIG. 8a) and normoxic (FIG. 8b) conditions.

[5] = system: RKO (colorectal) cancer cell lines; assay: Cell-based assay: incubation in RKO cells, HPLC of the lysate
Protocol: Compound 21 was administered to cells in culture and incubated in (a) hypoxic and (b) normoxic conditions.
RKO (colorectal) cancer cell lines were cultured in DMEM medium containing 10% FBS, penicillin (100 U/mL) and streptomycin (100 μg/mL). RKO cell line was originally obtained from the ATCC and routinely mycoplasma tested and found to be negative. Experiments were carried out with cells at 75% confluence.
Hypoxia Treatments were carried out in a Bactron II (Shell laboratories), In vivo 400 (Ruskinn), or Heracell mixed gas incubator (Fisher Scientific) depending on the level of hypoxia required.
HPLC Analysis HPLC (Waters 2695 system) comprised an RPB column (100 mm×3.2 mm, 35° C.). […] Detection used a photodiode array spectrophotometer (Waters 2996), a mass spectrometer (Waters Micromass ZQ mass spectrometer), and a UV spectrometer (Waters 296 diode array detector) scanning from 210 nm to 400 nm with a resolution set at 3.6 nm. Injections of 10 μL were made.

SMILES: Cc1noc(C)c1-c1cc(OCc2c([N+](=O)[O-])ccc3ncccc23)cc(C(O)c2ccccc2)c1 (stereo not drawn) [Compound 18, (3-(3,5-Dimethylisoxazol-4-yl)-5-((6-nitroquinolin-5-yl)methoxy)phenyl)(phenyl) methanol]
- reduction/fragmentation by human CYP reductase ([1]; hypoxic conditions, HPLC (FIG. 2a)): undergoes reduction by human CYP, including fragmentation to release compound 3
- reduction/fragmentation by human CYP reductase ([1]; normoxic conditions, HPLC (FIG. 2b)): no activation was observed
- decrease in potency vs compound 3 ([2]; BRD4 AlphaScreen IC50, compound 18 vs compound 3): 2 fold
- IC50 ([2]; same AlphaScreen assay): 0.749 µM

SMILES: N#CC(C#N)=C1C=C(/C=C/c2ccc(N=[N+]=[N-])cc2)Oc2ccccc21 [Compound A, (E)-2-(2-(4-azidostyryl)-4H-chromen-4-ylidene)malononitrile]
- difference in fluorescence emission between A and B [3]: ~650 fold
- reductive conversion to compound B [4]: trace reductive conversion to compound B

SMILES: CC(=O)Nc1ccc(OCc2c([N+](=O)[O-])ccc3ncccc23)cc1 [Compound 21, N-(4-((6-Nitroquinolin-5-yl)methoxy)phenyl)acetamide]
- UV absorbance of the compound's peak in the cell lysate ([5]; hypoxia, HPLC (FIG. 3a)): hypoxia-dependent decrease in UV absorbance
- UV absorbance of the compound's peak in the cell lysate ([5]; normoxia, over 24 h, HPLC (FIG. 3b)): continued to increase
- melting point: 204 to 206 °C
